Data from patent US5658885A, “Amidino and guanidino substituted boronic acid inhibitors of trypsin-like enzymes” (The DuPont Merck Pharmaceutical Company, priority 1994, dated 1997).
Counter-ions that a name gives are not always drawn.

Each compound was assayed against T1, human thrombin (Homo sapiens, UniProt P00734) (assay: Inhibition of thrombin hydrolysis of chromogenic substrate S2238 (Ki)). Details: S2238, pH 7.5.
T1 construct: 0.2-0.5 nM human thrombin or human factor Xa; purchased Enzyme Research Laboratories, South Bend, Ind
Format: biochemical
Description: The effectiveness of compounds of the present invention as inhibitors of blood coagulation proteases was determined using purified human proteases and synthetic substrates following procedures similar to those described in Kettner et al. (1990).
For these assays, the rate of enzymatic (thrombin, Factor Xa, and Factor VIIa) hydrolysis of chromogenic substrates (S2238 (H-D-Phe-Pip-Arg-pNA), S2222, and S2288, respectively; Kabi Pharmacia, Franklin, Ohio) was measured both in the absence and presence of compounds of the present invention. […] A decrease in the rate of absorbance change at 405 nm in the presence of inhibitor is indicative of enzyme inhibition. The results of this assay are expressed as inhibitory constant, Ki.
Thrombin and Xa determinations were made in 0.10M sodium phosphate buffer, pH 7.5, containing 0.20M NaCl, and 0.5% PEG 8000. VIIa determinations were made in 0.05M tris buffer, pH 7.6, containing 0.10M NaCl, 4 mM CaCl2, and 0.1% bovine serum albumin.
Reactions were allowed to go for 30 minutes and the velocities (rate of absorbance change vs time) were measured in the time frame of 25-30 minutes. The following relationship was used to calculate Ki values. [formula] where: vo is the velocity of the control in the absence of inhibitor;
vs is the velocity in the presence of inhibitor;
I is the concentration of inhibitor;
Ki is the dissociation constant of the enzyme: inhibitor complex;
S is the concentration of substrate;
Km is the Michaelis constant.

Ki [nM]	Compound
< 50000	Ac--(D)--Phe--Pro--boroGly[(CH2)3 --OCH3 ]--C10 H16 [Example 137]
< 500	COC(=O)C(Cc1cccc(C#N)c1)NC(=O)C1CCCN1C(=O)C(Cc1ccccc1)NC(=O)OC(C)(C)C [Example 130, Boc--(D)Phe--Pro--(S)Phe(mCN)--OMe]
< 500	Cbz--(D)Phe--Pro--boroIrg(CH3)--C10 H16.HBr [Example 51]
< 500	CC1(C)C2CC3OB(C(Cc4cccc(C#N)c4)NC(=O)C4CCCN4C(=O)CCc4cccnc4)OC3(C)C1C2 (stereo not drawn) [Example 45, 3-Pyridylpropionyl-Pro--boroPhe(m-CN)--C10 H16]
< 500	CH3 (CH2)3 SO2 --(D)Phe--Pro--boroArg(CH3)--OH.HCl [Example 65]
< 500	H--(D)Phe--Pro--boroOrn(CONH2)--C10 H16.HCl [Example 109]
< 500	COCCCC(NC(=O)[C@@H]1CCCN1C(=O)[C@@H](Cc1ccccc1)NC(=O)[C@@H]1CCCN1)B1OC2CC3CC(C3(C)C)C2(C)O1 (stereo partly drawn) [Example 145, H--Pro--(D)--Phe--Pro--boroGly[(CH2)3 --OCH3]--C10 H16]
< 500	CC1(C)C2CC3OB(C(Cc4cccc(C#N)c4)NC(=O)[C@@H]4CCCN4C(=O)/C=C/c4cccnc4)OC3(C)C1C2 (stereo in doubt) [Example 42, trans-3-(3-pyridyl)acryl-Pro--boroPhe(m-CN)--C10 H16]
< 500	Hydrocinnamoyl-Pro--boroArg(CH3)--OH.HCl [Example 55]
< 500	N#Cc1cccc(CC(NC(=O)C2CCCN2C(=O)C(Cc2ccccc2)NC(=O)CCC(=O)O)B(O)O)c1 (stereo not drawn) [Example 44, Succinyl-(D)Phe--Pro--boroPhe(m-CN)--OH]
< 500	CC(=O)NC(Cc1ccccc1)C(=O)N1CCCC1C(=O)NC(Cc1cccc(CN)c1)B1OC2CC3CC(C3(C)C)C2(C)O1 (stereo not drawn) [Example 13, Ac--(D)Phe--Pro--boroPhe--(m-CH2NH2)--C10 H16.HCl]
< 500	CC1(C)C2CC3OB(C(CCCNS(C)(=O)=O)NC(=O)C4CCCN4C(=O)C(Cc4ccccc4)NS(C)(=O)=O)OC3(C)C1C2 (stereo not drawn) [Example 116, Methanesulfonyl-(D)Phe--Pro--boroOrn(N-Methanesulfonyl)-C10 H16]
< 500	Ac--(D)Phe--Pro--boroIrg(CH3)--OH.HBr [Example 52]
< 500	CC1(C)C2CC3OB(C(CCCNS(C)(=O)=O)NC(=O)[C@@H]4CCCN4C(=O)[C@H](N)Cc4ccccc4)OC3(C)C1C2 (stereo partly drawn) [Example 114, H--(D)Phe--Pro--boroOrn(N-Methanesulfonyl)-C10 H16.HCl]
< 500	COCCCC(NC(=O)[C@@H]1CCCN1C(=O)[C@@H](Cc1ccccc1)NC(C)C)B1OC2CC3CC(C3(C)C)C2(C)O1 (stereo partly drawn) [Example 143, (CH3)2 CH--(D)--Phe--Pro--boroGly[(CH2)3 --OCH3]--C10 H16]
< 500	CN(CC(=O)NC(CCCNC=N)B(O)O)C(=O)C(Cc1ccccc1)NC(=O)OC(C)(C)C (stereo not drawn) [Example 70, Boc--(D)Phe--Sar--boroOrn(CH=NH)--OH.HCl]
< 500	CC1(C)C2CC3OB(C(CCCON)NC(=O)C4CCCN4C(=O)C(Cc4ccccc4)NS(=O)(=O)Cc4ccccc4)OC3(C)C1C2 (stereo not drawn) [Example 103, PhCH2 SO2 --(D)Phe--Pro--boroGly[(CH2)3 --ONH2]--C10 H16.HCl]
< 50000	Hydrocinnamoyl-Pro--boroIrg(CH2 CH3)--OH.HBr [Example 53]
< 500	PhCH2 SO2 --(D)Phe--Pro--boroArg(CH3)--OH.HCl [Example 61]
< 500	N-alpha-[boroOrn(CH=NH)--OH]-(2-trans benzylcarboxamido)-cyclopentane-1-carboxamide.HCl [Example 71]
< 500	CC(=O)N[C@H](Cc1ccccc1)C(=O)N1CCC[C@H]1C(=O)N[C@@H](Cc1cccc(Br)c1)B1O[C@@H]2C[C@@H]3C[C@@H](C3(C)C)[C@]2(C)O1 [Example 14, Ac--(D)Phe--Pro--boroPhe(m-Br)--C10 H16]
< 500	CN[C@H](Cc1ccccc1)C(=O)N1CCCC1C(=O)NC(CCCOC)B1OC2CC3CC(C3(C)C)C2(C)O1 (stereo partly drawn) [Example 142, N-methyl-(D)--Phe--Pro--boroGly[(CH2)3 --OCH3]--C10 H16]
< 50000	CC1(C)C2CC3OB(C(Cc4cccc(C#N)c4)NC(=O)C4CCCN4)OC3(C)C1C2 (stereo not drawn) [Example 26, H--Pro--boroPhe(m-CN)--C10 H16.HCl]
< 500	PhSO2 --(D)Phe--Pro--boroOrn(CH=NH)--OH.HCl [Example 59]

Ki [nM]	Compound
< 500	CC(=O)Nc1ccc(S(=O)(=O)NC(Cc2ccccc2)C(=O)N2CCCC2C(=O)NC(CCCNS(C)(=O)=O)B2OC3CC4CC(C4(C)C)C3(C)O2)cc1 (stereo not drawn) [Example 115, 4-(N-Acetyl)Anilinesulfonyl-(D)Phe--Pro--boroOrn(N-Methanesulfonyl)-C10 H16]
< 500	HOOCCH2 --(D)Phe--Pro--boroOrn(CONH2)--C10 H16.HCl [Example 111]
< 50000	Ac--Pro--boroPhe(m-CN)--C10 H16 [Example 35]
< 500	COCCCC(NC(=O)C1CCCN1C(=O)C(N)Cc1ccccc1)B1OC2CC3CC(C3(C)C)C2(C)O1 (stereo not drawn) [Example 139, H--(D)--Phe--Pro--boroGly[(CH2)3 --OCH3]--C10 H16]
< 500	CN(C(=O)OC(C)(C)C)C(Cc1ccccc1)C(=O)N1CCCC1C(=O)NC(Cc1cccc(C#N)c1)B1OC2CC3CC(C3(C)C)C2(C)O1 (stereo not drawn) [Example 33, N--Boc--N--CH3 --(D)Phe--Pro--boroPhe(m-CN)--C10 H16]
< 500	HOOCCH2 --(D)Phe--Pro--boroOrn[C(NCN)NHCH3 ]--C10 H16.HCl [Example 106]
< 500	N#Cc1cccc(CC(NC(=O)C2CCCN2C(=O)C(N)Cc2ccccc2)B(O)O)c1 (stereo not drawn) [Example 19, H--(D)Phe--Pro--boroPhe(m-CN)--OH.HCl]
< 500	Boc--(D)Phe--Pro--NH--CH[4-amino-cyclohexyl]BO2 --C10 H16 [Example 126]
< 500	CC(C)(C)OC(=O)NC(Cc1ccccc1)C(=O)N1CCC1C(=O)NC(Cc1cccc(C#N)c1)B1OC2CC3CC(C3(C)C)C2(C)O1 (stereo not drawn) [Example 46, Boc--(D)Phe--Aze--boroPhe(m-CN)--C10 H16]
< 500	CN(CC(=O)NC(CCCNC=N)B(O)O)C(=O)C(Cc1ccccc1)NS(=O)(=O)CCc1ccccc1 (stereo not drawn) [Example 69, Phenethyl-SO2 --(D)Phe--Sar--boroOrn(CH=NH)--OH.HCl]
< 500	CC(=O)NC(Cc1ccccc1)C(=O)N1CCCC1C(=O)NC(Cc1ccc(C#N)cc1)B1OC2CC3CC(C3(C)C)C2(C)O1 (stereo not drawn) [Example 16, Ac--(D)Phe--Pro--boroPhe(p-CN)--C10 H16]
< 500	CC(=O)NC(Cc1ccccc1)C(=O)N(C)CC(=O)NC(CCCNC=N)B(O)O (stereo not drawn) [Example 67, Ac--(D)Phe--Sar--boroOrn(CH=NH)--OH.HCl]
< 500	CC(C)(C)OC(=O)N[C@H](Cc1ccccc1)C(=O)N1CCCC1C(=O)NC(CC1CCC(O)CC1)B1OC2CC3CC(C3(C)C)C2(C)O1 (stereo partly drawn) [Example 127, Boc--(D)Phe--Pro--NH--CH[CH2 (4-hydroxy-cyclohexyl)]BO2 --C10 H16]
< 500	CC1(C)C2CC3OB(C(Cc4cccc(C#N)c4)NC(=O)C4CCCN4C(=O)CSc4ccncc4)OC3(C)C1C2 (stereo not drawn) [Example 43, (4-Pyridylthio)acetyl-Pro--boroPhe(m-CN)--C10 H16]
< 500	Boc--(D)Phe--Aze--boroOrn(CH=NH)--OH.HCl [Example 74]
< 500	H--(D)Thiazolylalanine-Pro--boroPhe(m-CN)--C10 H16.HCl [Example 29]
< 500	CC1(C)C2CC3OB(C(CCCNS(C)(=O)=O)NC(=O)[C@@H]4CCCN4C(=O)[C@@H](Cc4ccccc4)NS(=O)(=O)Cc4ccccc4)OC3(C)C1C2 (stereo partly drawn) [Example 120, PhCH2 SO2 --(D)Phe--Pro--boroOrn(N-Methanesulfonyl)-C10 H16]
< 500	H--(D)Phe--Pro--boroOrn(CH=NH)]--C10 H16.0.5 HCl.0.5 BSA [Example 8]
< 500	CCOCCCC(NC(=O)C1CCCN1C(=O)C(Cc1ccccc1)NC(=O)OC(C)(C)C)B1OC2CC3CC(C3(C)C)C2(C)O1 (stereo not drawn) [Example 121, Boc--(D)Phe--Pro--boroGly[(CH2)3 --OCH2 CH3]--C10 H16]
< 500	CC1(C)C2CC3OB(C(Cc4cccc(C#N)c4)NC(=O)C4CCN4C(=O)C(N)Cc4ccccc4)OC3(C)C1C2 (stereo not drawn) [Example 47, H--(D)Phe--Aze--boroPhe(m-CN)--C10 H16.HCl]
< 500	CC(=O)NC(Cc1ccccc1)C(=O)N1CCCC1C(=O)NC(CCCCC(=N)N)B1OC2CC3CC(C3(C)C)C2(C)O1 (stereo not drawn) [Example 2, Ac--(D)Phe--Pro--NH--CH[(CH2)4 --C(NH)NH2]BO2 C10 H16.BSA]
< 500	PhCH2 SO2 --(D)Phe--Pro--boroOrn(CH=NH)--OH.HCl [Example 62]
< 500	COC(=O)c1cccc(CC(NC(=O)C2CCCN2C(=O)C(N)Cc2ccccc2)B2OC3CC4CC(C4(C)C)C3(C)O2)c1 (stereo not drawn) [Example 135, H--(D)Phe--Pro--boroPhe(mCOOMe)--C10 H16.HCl]
< 500	CC1(C)C2CC3OB(C(CCCNS(C)(=O)=O)NC(=O)C4CCCN4C(=O)[C@@H](Cc4ccccc4)NCC(=O)O)OC3(C)C1C2 (stereo partly drawn) [Example 119, HOOCCH2 --(D)Phe--Pro--boroOrn(N-Methanesulfonyl)-C10 H16.HCl]
